Measured values published in US10857105B2, “Compounds and compositions for intracellular delivery of therapeutic agents” (ModernaTX, Inc., priority 2017, dated 2020).

Assays:
Sprague Dawley rat = details: 0.3 mg/kg dose mRNA; cited from earlier work
[1] = pH, osmolality and zeta potential of nanoparticle compositions; assay type: physicochemical; details: nanoparticle composition with hEPO mRNA (Table 30)
hEPO mRNA = assay: Pretreatment study (methotrexate or dexamethasone) with MC3 formulation in Cynomolgus monkeys; assay type: in vivo; details: once weekly for four weeks, absence of any pretreatment
From the text: In order to combat negative effects, nanoparticle compositions are co-administered with one or more substances (e.g., co-medications or additional therapeutic and/or prophylactics) to subjects. Potentially useful additional therapeutic and/or prophylactics include steroids (e.g., corticosteroids), anti-histamines, H1 receptor blockers, H2 receptor blockers, anti-inflammatory compounds, statins, BTK inhibitors, S1P1 agonists, glucocorticoid receptor modulators (GRMs), and estradiols. Non-human primates are pretreated with one or more additional therapeutic agents selected from dexamethasone and acetaminophen. The additional therapeutic agent is administered either 24 hours, 1 hour, or both 24 hours and 1 hour before administration of a nanoparticle composition. Cytokine profiles, inflammation, and other parameters are measured and compared to evaluate the effectiveness of pretreatment
The effects of pretreatment to non-human primates were evaluated using a standard MC3 formulation including an mRNA encoding hEPO. Male monkeys were administered the nanoparticle composition once weekly for four weeks at a dose rate of 5 ml/kg/h and were pretreated with either methotrexate or dexamethasone.
As shown, in the absence of any pretreatment, maximal expression levels decreased nearly 70% over the course of the study.

[2] = MC3 single cell necrosis in rat liver and liver enzymes (ALT, AST); assay type: in vivo; details: rats, 0.3 mg/kg MC3-based LNP
Experimental: FIG. 37 is a series of graphs illustrating MC3 single cell necrosis in rat liver and liver enzyme. The top row is a pair of images of livers of rats administered with 0.3 mg/kg of a […] (LNP) not containing an mRNA (right) and PBS (phosphate buffered saline) as a control (left). The bottom row is a pair of graphs showing expression of ALT (left) and AST(right) in the liver following administration of a 0.3 mg/kg of a MC3-based LNP containing an mRNA.

human hepatocytes = assay: Metabolite profiling of Compound 18 incubated with human hepatocytes; assay type: in vitro ADME; design: key: +: Detected; ND: Not detected; details: Compound 18 (10 μM)
Experimental: In vitro metabolite identification studies using compound 18 were also performed. […] The disappearance of parent compound 18 and the primary metabolite, compound 166, from mouse liver tissue was measured after dosing 0.25 mg/kg mRNA on days 1, 8, and 15.
The results of metabolic profiling and characterization for compound 18 incubated with human hepatocytes or human plasma are summarized in Tables 41 and 42, respectively.

[3] = Tolerability (AST, ALT, clinical signs, hematology) in non-human primates; assay type: in vivo; details: single dose 0.05, 0.3 or 1.0 mpk, intravenous infusion 60 minutes
Experimental: The tolerability and efficacy of nanoparticle compositions to non-human primates was also investigated using a sample formulation including Compound 18. The formulation was prepared according to the standard MC3 formulation described above and included an hEPO mRNA. Primates were administered a single dose of 0.05 (Group 1), 0.3 (Group 2), or 1.0 (Group 3) mpk via intravenous infusion for 60 minutes. Three primates were administered each dose. Expression of hEPO was measured prior to dosing and at 2, 6, 24, 48, and 96 hours post-treatment (Table 26). Table 28 includes levels of indicators of complement activation, while Table 29 includes cytokine induction data.
In general, lower doses were better tolerated. High doses induced body temperature elevation and hunched posture, which is similar to the behavior observed for primates administered higher doses of MC3 formulations.

cynomolgus monkeys = assay: Human IgG (anti-influenza A antibody mRNA) expression in non-human primates; assay type: in vivo, cynomolgus monkey; details: NHP, single dose
Experimental: NHP studies: Nonhuman primate studies were conducted using naïve cynomolgus monkeys (cynos), 2-4 years old, weighing 2-6 kg. No treatment randomization or blinding methods were used for any of the animal studies. Sample sizes were determined by the resource equation method. For injection, mRNA-LNPs in phosphate buffered saline (PBS) were administered by 60-minute intravenous infusion using a temporary indwelling catheter inserted in a peripheral vein.
Human IgG analysis for NHP samples: A 10.0-μL matrix aliquot is transferred to a low protein binding 96-well plate. A 25.0-μL aliquot of the working internal standard solution is added, and the sample aliquot is diluted with loading buffer. […] The final extract is analyzed via HPLC with MS/MS detection using positive ion electrospray. A linear, 1/concentration^2 weighted, least-squares regression algorithm is used to quantitate unknown samples.
NHP more closely approximates clinical responses for LNP-based systems than rodent (DeRosa, F., Guild, B., Karve, S., Smith, L., Love, K., Dorkin, J R., et. al. Therapeutic efficacy in a hemophilia B model using a biosynthetic mRNA liver depot system. Gene Ther. 2016, 23, 699-707, the contents of which are incorporated herein by reference in their entireties). […] A separate study evaluated the lipid tissue accumulation in NHP after a single dose.

SMILES | ALT, AST and pathology of MC3-based mRNA LNP (Sprague Dawley rat) | Osmolality [1] [mOsm/kg] | Zeta potential [1] [mV] | pH [1] | Decrease of maximal expression levels over the course of the study (hEPO mRNA) [%] | ALT, AST and liver pathology [2] | Detection at 0 min (human hepatocytes; human hepatocytes (1 million cells/mL), 0 min) | Detection at 60 min (human hepatocytes; human hepatocytes, 60 min) | Detection at 120 min (human hepatocytes; human hepatocytes, 120 min) | Detection at 240 min (human hepatocytes; human hepatocytes, 240 min) | Tolerability [3] | increase in expression of anti-human IgG influenza A antibody compared to an MC3 LNP (cynomolgus monkeys) [fold]
CCCCCC=CCC=CCCCCCCCCC(CCCCCCCCC=CCC=CCCCCC)OC(=O)CCCN(C)C (stereo not drawn) [MC3, heptatriaconta-6,9,28,31-tetraen-19-yl 4-(dimethylamino)butanoate, reference compound] | ALT and AST were elevated and pathology showed evidence of necrosis | 318 | −3.64 | 7.52 | ~70 | ALT and AST were elevated and pathology showed evidence of necrosis | – | – | – | – | – | –
CCCCCCCCCOC(=O)CCCCCCCN(CCO)CCCCCCCC(=O)OC(CCCCCCCC)CCCCCCCC [Compound 18, Heptadecan-9-yl 8-((2-hydroxyethyl)(8-(nonyloxy)-8-oxooctyl)amino)octanoate] | – | – | – | – | – | – | + | + | + | + | tolerated similarly to the MC3 formulation | 5
